The source made the active and inactive calls.
Assays:
[1] = cells; type: functional, cell-based
[2] = microbe, parasite or virus in culture; type: functional; conditions: Mycobacterium tuberculosis
[3] = cells; type: functional, cell-based; remark: listed apart in the source
[4] = THP-1 cell cytotoxicity, dose response, cytotoxicity control for non-replicating M. tuberculosis project (AID 489025); type: functional
[5] = HepG2 cell cytotoxicity, dose response, cytotoxicity control for non-replicating M. tuberculosis project (AID 489018); type: functional; conditions: Mycobacterium tuberculosis
[6] = Vero E6 cell cytotoxicity, dose response, cytotoxicity control for non-replicating M. tuberculosis project, secondary assay (AID 492998); type: functional, VeroE6; conditions: Vero C1008
[7] = biological target: Nonstructural protein 1 (Influenza A virus, UniProt Q194T2); type: functional, Influenza A virus (A/California/07/2009(H1N1))
Chain of Nonstructural protein 1 (Q194T2 whole entry): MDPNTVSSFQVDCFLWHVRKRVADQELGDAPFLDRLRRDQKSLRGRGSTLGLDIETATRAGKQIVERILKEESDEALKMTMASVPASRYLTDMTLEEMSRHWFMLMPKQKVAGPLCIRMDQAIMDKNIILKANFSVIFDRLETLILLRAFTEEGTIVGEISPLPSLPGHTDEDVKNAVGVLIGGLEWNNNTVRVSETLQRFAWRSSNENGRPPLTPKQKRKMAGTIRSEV

[8] = cells; type: functional
[9] = biological target: T1, Hexokinase HKDC1 (Homo sapiens, UniProt Q2TB90); assay: HKDC1 hexokinase inhibitors, dose response, biochemical, W721R variant (AID 504729); type: functional
T1 sequence (Q2TB90 whole entry): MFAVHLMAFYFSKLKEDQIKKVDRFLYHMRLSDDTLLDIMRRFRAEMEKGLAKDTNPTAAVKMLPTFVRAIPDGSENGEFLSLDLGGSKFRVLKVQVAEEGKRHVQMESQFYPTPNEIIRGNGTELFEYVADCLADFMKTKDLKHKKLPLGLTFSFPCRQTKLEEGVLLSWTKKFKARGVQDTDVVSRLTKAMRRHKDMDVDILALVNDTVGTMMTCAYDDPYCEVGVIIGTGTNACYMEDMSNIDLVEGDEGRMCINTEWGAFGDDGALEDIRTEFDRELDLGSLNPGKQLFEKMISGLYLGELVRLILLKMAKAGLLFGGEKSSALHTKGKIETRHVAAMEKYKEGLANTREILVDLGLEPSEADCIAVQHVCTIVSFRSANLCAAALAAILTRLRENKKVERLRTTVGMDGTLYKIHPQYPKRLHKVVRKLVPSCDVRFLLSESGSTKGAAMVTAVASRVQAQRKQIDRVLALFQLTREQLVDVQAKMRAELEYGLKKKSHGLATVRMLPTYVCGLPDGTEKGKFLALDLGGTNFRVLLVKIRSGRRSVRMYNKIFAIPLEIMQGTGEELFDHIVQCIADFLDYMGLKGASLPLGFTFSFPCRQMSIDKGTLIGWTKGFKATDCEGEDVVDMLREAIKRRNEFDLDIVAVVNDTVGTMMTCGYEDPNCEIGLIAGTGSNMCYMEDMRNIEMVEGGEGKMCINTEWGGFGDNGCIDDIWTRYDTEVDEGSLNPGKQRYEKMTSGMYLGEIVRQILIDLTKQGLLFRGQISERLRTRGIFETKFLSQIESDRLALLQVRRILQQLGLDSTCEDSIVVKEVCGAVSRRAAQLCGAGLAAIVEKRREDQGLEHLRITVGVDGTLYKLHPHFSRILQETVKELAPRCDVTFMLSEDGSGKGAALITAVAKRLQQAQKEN

[10] = biological target: T2, Hexokinase-1 (Homo sapiens, UniProt P19367); assay: hexokinase 1 activators, dose response, selectivity assay for HKDC1 activator project, biochemical (AID 504762); type: functional
T2 sequence (P19367 whole entry): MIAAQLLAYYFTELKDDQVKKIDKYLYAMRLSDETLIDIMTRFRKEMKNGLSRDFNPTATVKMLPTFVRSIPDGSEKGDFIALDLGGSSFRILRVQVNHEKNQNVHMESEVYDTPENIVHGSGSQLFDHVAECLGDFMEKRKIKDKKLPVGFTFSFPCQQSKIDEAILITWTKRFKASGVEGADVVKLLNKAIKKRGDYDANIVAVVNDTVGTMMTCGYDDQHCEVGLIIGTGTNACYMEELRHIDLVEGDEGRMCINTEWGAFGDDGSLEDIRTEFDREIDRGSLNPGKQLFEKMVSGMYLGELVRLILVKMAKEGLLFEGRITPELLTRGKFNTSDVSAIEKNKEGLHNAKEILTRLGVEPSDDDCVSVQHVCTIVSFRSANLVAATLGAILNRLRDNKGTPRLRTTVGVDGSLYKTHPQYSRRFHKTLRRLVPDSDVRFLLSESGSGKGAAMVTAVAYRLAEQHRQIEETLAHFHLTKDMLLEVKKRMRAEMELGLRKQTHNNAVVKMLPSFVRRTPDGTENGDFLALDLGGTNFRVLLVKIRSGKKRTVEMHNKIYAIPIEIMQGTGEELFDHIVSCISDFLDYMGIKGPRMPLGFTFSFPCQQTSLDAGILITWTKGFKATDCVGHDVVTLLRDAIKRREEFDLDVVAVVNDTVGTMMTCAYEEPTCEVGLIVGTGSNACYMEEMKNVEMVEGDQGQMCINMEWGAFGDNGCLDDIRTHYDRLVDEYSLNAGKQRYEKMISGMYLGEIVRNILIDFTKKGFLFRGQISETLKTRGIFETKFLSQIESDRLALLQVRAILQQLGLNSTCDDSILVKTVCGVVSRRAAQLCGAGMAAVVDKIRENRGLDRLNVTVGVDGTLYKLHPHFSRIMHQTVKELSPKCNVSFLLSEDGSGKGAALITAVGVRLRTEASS

[11] = biological target: T3, DNA dC->dU-editing enzyme APOBEC-3A (Homo sapiens, UniProt P31941); assay: Dose Response confirmation of small molecule APOBEC3A DNA Deaminase Inhibitors via a fluorescence-based single-stranded DNA deaminase assay. [Related pubchem assays (depositor defined):AID493011, AID493024]; type: functional
T3 sequence (P31941 whole entry): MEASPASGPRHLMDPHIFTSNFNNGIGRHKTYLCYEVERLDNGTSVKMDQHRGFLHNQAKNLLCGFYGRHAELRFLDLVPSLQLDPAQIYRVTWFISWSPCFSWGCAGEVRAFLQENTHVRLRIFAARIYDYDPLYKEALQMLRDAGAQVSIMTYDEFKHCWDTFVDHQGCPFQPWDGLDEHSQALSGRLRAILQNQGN

[12] = biological target: T4, DNA dC->dU-editing enzyme APOBEC-3G (Homo sapiens, UniProt Q9HC16); type: functional
T4 sequence (Q9HC16 whole entry, the tested form may be a part): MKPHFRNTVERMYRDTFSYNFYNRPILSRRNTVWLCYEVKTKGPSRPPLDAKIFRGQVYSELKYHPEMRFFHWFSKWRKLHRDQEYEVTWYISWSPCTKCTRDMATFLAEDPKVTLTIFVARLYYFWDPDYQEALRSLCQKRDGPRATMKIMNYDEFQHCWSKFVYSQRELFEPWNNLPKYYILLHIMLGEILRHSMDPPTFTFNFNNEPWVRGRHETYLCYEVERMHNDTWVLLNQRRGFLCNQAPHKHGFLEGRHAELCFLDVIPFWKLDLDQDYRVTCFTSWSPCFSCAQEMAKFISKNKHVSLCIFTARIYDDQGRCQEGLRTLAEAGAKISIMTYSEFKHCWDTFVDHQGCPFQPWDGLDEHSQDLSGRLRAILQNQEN

[13] = biological target: T5, Runt-related transcription factor 1/Core-binding factor subunit beta (Homo sapiens, UniProt Q01196+Q13951); assay: inhibitors of RUNX1 Runt–CBFb-SMMHC binding, primary screen, biochemical, FRET, Cerulean-Runt, Venus-CBFb-SMMHC, uHTS (AID 1434); type: protein assay;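 note: partner is the CBFb-SMMHC leukemia fusion protein rather than wild-type CBFb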
T5 sequence (Q01196 whole entry, the tested form may be a part): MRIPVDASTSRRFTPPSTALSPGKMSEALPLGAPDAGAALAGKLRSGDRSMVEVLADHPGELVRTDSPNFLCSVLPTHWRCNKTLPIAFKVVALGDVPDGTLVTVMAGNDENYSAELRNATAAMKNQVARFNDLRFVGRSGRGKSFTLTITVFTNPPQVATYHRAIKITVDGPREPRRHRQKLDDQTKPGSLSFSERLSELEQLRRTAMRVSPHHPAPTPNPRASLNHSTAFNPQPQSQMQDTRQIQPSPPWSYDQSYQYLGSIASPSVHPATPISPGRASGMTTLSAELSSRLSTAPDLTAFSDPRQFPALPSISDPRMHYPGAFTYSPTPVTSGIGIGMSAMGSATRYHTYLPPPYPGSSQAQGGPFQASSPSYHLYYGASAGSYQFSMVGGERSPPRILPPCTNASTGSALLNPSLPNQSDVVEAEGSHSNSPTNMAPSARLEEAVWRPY
T5 sequence (Q13951 whole entry, the tested form may be a part): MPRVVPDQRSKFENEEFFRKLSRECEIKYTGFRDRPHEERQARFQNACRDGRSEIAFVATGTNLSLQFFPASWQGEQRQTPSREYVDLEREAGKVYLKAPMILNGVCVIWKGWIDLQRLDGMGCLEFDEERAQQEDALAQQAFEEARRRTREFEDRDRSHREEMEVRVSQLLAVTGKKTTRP

[14] = biological target: T5, Runt-related transcription factor 1/Core-binding factor subunit beta; assay: inhibitors of RUNX1 Runt–CBFb-SMMHC binding, biochemical, TR-FRET (AID 1438); type: protein assay
[15] = biological target: Estrogen receptor beta (Homo sapiens, UniProt Q92731);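 note: recombinant ER-beta bound to coactivator SRC1 peptide in presence of estradiol agonist; inhibitors block coactivator peptide binding and lower the FRET signal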
[16] = biological target: T6, Corticotropin-releasing factor receptor 2/Corticotropin-releasing factor-binding protein (Homo sapiens, UniProt P24387+Q13324); assay: activators of CRF receptor 2 with binding protein – uHTS hits, confirmation (AID 602473); type: functional; conditions: read-out: EC50_Mean
T6 sequence (Q13324 whole entry): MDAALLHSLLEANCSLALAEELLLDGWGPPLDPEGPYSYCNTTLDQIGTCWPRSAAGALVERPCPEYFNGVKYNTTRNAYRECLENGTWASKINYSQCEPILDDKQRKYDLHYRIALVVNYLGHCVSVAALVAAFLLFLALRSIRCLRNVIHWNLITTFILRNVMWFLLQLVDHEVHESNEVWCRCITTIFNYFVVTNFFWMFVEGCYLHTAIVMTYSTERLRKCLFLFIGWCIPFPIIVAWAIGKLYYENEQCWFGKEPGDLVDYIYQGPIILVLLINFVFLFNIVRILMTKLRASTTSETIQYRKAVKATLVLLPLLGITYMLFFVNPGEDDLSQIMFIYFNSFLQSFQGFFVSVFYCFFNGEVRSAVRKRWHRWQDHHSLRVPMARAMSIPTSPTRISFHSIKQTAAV
T6 sequence (P24387 whole entry): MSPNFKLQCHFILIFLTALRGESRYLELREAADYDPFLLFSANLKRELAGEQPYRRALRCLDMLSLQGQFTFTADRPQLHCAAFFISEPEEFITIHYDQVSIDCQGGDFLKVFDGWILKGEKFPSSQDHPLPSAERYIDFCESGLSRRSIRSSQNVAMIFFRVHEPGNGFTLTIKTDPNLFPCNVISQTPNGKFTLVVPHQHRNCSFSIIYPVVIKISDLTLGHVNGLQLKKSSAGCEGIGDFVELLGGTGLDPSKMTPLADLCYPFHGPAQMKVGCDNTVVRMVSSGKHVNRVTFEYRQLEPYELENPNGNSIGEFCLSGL

[17] = biological target: T7, Voltage-gated N-type calcium channel alpha-1B subunit/Amyloid beta A4 precursor protein-binding family A member 1 (Homo sapiens, UniProt Q00975+Q02410); type: protein assay
T7 sequence (Q00975 whole entry): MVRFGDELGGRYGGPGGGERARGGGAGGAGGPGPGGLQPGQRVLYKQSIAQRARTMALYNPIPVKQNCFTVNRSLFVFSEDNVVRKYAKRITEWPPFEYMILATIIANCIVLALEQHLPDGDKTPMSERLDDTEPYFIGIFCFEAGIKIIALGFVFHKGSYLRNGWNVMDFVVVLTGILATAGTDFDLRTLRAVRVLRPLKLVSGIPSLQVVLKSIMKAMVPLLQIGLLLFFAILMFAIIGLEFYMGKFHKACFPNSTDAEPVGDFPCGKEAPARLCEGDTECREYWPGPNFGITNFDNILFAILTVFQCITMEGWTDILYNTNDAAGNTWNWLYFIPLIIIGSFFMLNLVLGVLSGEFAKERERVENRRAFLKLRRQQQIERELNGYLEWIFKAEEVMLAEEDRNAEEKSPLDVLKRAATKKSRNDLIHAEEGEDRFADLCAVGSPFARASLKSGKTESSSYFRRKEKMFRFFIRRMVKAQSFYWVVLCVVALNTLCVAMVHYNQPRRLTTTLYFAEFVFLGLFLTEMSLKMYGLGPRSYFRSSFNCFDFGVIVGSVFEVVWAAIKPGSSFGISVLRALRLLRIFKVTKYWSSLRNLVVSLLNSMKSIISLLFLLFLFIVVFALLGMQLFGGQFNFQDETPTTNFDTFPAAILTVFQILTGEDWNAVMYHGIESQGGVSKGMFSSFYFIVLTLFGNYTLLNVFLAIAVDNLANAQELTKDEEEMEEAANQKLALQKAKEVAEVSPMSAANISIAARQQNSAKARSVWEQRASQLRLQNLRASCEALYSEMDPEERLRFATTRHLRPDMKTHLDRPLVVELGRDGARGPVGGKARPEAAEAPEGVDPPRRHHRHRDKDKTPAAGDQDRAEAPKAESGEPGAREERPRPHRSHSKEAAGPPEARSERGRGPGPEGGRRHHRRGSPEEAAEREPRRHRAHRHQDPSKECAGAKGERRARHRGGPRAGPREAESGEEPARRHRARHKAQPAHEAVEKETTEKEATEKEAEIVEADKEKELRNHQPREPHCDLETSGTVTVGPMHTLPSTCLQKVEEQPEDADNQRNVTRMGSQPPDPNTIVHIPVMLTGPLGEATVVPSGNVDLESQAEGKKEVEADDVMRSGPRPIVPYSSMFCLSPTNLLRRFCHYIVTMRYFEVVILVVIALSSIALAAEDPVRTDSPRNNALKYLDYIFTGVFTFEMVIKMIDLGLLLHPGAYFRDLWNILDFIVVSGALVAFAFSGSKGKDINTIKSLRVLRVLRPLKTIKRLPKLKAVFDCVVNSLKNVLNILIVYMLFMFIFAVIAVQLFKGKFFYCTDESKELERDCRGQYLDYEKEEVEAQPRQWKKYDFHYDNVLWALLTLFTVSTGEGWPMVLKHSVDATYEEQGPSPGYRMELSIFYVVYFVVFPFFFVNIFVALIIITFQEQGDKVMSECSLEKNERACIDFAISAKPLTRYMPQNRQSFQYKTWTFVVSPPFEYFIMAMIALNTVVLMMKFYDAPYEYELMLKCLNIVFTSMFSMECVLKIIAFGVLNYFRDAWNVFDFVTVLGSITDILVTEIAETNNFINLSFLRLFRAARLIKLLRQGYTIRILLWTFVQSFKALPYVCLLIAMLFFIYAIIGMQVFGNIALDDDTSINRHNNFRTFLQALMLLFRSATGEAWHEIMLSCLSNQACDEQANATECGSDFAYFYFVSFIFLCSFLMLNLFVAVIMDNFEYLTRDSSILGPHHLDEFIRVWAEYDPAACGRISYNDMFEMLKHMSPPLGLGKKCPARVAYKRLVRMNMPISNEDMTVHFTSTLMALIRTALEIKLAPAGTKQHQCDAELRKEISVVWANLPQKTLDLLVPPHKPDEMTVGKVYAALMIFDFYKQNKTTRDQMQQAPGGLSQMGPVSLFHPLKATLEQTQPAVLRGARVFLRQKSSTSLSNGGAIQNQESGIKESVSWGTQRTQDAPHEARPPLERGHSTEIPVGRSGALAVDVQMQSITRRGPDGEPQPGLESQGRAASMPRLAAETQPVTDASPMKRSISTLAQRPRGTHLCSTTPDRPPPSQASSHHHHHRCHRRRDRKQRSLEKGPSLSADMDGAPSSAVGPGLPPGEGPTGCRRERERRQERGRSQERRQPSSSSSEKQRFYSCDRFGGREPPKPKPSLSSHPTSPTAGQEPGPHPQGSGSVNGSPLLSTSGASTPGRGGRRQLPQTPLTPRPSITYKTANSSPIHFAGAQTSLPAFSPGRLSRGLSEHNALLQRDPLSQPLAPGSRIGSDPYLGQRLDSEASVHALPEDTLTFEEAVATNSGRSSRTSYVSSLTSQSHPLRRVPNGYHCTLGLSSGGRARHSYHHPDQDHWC
T7 sequence (Q02410 whole entry): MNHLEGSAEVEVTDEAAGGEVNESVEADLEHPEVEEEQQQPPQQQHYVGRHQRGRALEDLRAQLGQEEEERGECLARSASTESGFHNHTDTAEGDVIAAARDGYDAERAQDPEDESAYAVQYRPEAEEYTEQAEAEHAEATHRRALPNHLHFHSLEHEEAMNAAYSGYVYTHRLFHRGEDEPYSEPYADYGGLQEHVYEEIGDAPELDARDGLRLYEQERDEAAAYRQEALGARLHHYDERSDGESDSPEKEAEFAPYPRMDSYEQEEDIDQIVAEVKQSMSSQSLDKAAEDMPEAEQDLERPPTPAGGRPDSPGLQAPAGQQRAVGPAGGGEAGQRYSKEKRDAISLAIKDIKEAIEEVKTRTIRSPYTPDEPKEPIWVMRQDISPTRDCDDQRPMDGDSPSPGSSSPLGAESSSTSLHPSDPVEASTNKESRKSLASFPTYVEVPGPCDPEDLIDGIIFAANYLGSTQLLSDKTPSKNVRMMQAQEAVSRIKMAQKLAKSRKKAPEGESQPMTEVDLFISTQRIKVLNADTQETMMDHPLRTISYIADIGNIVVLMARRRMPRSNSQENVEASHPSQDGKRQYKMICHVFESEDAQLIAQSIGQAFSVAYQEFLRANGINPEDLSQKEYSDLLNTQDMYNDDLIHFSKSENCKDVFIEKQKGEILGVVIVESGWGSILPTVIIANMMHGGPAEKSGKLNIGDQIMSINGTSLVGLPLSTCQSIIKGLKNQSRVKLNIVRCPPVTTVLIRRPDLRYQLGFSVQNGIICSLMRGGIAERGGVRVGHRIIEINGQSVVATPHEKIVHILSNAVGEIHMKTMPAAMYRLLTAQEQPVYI

[18] = biological target: Large T antigen (Simian virus 40, UniProt P03070); type: functional, Betapolyomavirus macacae;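 note: Confirmatory-stage PubChem screen for compounds that inhibit SV40 T antigen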
[19] = biological target: T7, Voltage-gated N-type calcium channel alpha-1B subunit/Amyloid beta A4 precursor protein-binding family A member 1; type: protein assay; remark: listed apart in the source
[20] = biological target: T3, DNA dC->dU-editing enzyme APOBEC-3A; assay: APOBEC3A DNA deaminase inhibitors, dose response, biochemical (AID 504722); type: functional
[21] = biological target: Eukaryotic translation initiation factor 4E (Mus musculus, UniProt P63073); assay: eIF4E–eIF4G protein interaction inhibitors, dose response, biochemical, TR-FRET (AID 855); type: functional;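 note: potency for disrupting eIF4E binding to eIF4GI seen as loss of FRET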
Chain of Eukaryotic translation initiation factor 4E (P63073 whole entry): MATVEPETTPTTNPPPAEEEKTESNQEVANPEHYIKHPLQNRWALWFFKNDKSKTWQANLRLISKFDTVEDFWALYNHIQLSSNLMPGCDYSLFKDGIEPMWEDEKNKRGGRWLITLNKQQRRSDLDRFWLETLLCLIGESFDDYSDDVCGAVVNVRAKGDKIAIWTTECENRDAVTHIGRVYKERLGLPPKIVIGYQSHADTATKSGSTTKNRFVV

[22] = biological target: T4, DNA dC->dU-editing enzyme APOBEC-3G; assay: Dose Response confirmation of small molecule APOBEC3G DNA Deaminase Inhibitors via a fluorescence-based single-stranded DNA deaminase assay. [Related pubchem assays (depositor defined):AID493012, AID493028]; type: functional
[23] = biological target: Eukaryotic translation initiation factor 4H (Homo sapiens, UniProt Q15056); assay: human eIF4H binding inhibitors, primary screen, translation initiation inhibitor project, biochemical, uHTS, fluorescence polarization (AID 2012)
[24] = biological target: Polyadenylate-binding protein 1 (Homo sapiens, UniProt P11940); assay: PABP poly(A) RNA binding inhibitors, primary screen, biochemical, fluorescence polarization, uHTS (AID 2014)
[25] = biological target: Bcl-2-related protein A1 (Mus musculus, UniProt Q07440); type: functional;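 note: confirmatory dose–response counterscreen on Bfl-1, used to check hits from a UBC13 polyubiquitin inhibitor campaign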
Chain of Bcl-2-related protein A1 (Q07440 whole entry): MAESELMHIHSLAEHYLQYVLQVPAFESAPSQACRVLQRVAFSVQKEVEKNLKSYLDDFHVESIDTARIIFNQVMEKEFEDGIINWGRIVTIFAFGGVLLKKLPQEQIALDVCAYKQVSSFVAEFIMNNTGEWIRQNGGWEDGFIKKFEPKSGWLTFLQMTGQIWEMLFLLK

[26] = biological target: T8, Ubiquitin-conjugating enzyme E2 N (Homo sapiens, UniProt P61088); type: functional
T8 sequence (P61088 whole entry): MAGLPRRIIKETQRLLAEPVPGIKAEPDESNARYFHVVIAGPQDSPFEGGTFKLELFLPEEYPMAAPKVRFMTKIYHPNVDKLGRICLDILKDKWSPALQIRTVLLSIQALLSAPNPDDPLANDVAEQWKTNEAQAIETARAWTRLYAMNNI

[27] = biological target: T8, Ubiquitin-conjugating enzyme E2 N; type: functional; remark: listed apart in the source
[28] = biological target: T9, Rac GTPase-activating protein 1 (Homo sapiens, UniProt Q9H0H5); assay: MgcRacGAP GTPase-activating activity inhibitors, confirmation, biochemical, ADP Hunter fluorescence, primary and confirmatory (AID 624330); type: functional
T9 sequence (Q9H0H5 whole entry): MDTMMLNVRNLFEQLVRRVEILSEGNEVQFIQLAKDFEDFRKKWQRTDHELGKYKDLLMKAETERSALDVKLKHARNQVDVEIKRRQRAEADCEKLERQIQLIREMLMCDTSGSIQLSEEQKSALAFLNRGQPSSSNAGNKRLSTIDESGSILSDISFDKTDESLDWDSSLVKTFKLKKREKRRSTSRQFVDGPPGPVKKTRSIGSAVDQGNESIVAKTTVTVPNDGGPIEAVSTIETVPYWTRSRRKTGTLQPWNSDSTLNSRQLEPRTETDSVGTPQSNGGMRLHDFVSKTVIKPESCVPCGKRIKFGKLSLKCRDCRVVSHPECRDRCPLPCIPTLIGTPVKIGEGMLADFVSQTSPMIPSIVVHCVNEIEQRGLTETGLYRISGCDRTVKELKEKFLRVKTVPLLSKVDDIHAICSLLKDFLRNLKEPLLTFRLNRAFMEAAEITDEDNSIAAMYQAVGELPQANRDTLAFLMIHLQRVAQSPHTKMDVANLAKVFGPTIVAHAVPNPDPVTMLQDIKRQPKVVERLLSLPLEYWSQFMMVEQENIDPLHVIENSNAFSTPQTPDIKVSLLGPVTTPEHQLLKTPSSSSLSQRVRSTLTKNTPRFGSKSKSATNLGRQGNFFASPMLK

For `CNc1nc(-c2ccccn2)nnc1-c1ccccc1`, the EC50 [1] was 12.8 µM (active), the CC50 [2] was 13.3 µM (active) and the EC50 [3] was > 350 µM (not active). For the same molecule, the CC50 [4] was 19.1 µM (active), the CC50 [5] was > 20 µM (active) and the CC50 [6] was 19.9 µM (active). For the same molecule, the IC50 [7] was 1.66 µM (active) and the IC50 [8] was 11.1 µM (active).

With `O=C(c1ccccc1)c1nnc(-c2ccccc2)cc1O` the IC50 [9] was > 80 µM (inactive) and the EC50 [10] was > 80 µM (inactive).

In the case of `CC[n+]1cccc(-c2nc3ccccc3s2)c1`, the IC50 [11] is reported as 3.65 µM (active) and the IC50 [12] is reported as 3.66 µM (active).

With `Cc1cccc(S(=O)(=O)c2c(N)n(Cc3ccco3)c3nc4ccccc4nc23)c1` the IC50 [13] was > 100 µM (inactive), the IC50 [14] was > 100 µM (inactive) and the IC50 [15] was > 50 µM (not active). The EC50 [16] was > 53 µM (inactive).

In the case of `COc1ccc(N2CSC3=C(C#N)C(c4cccs4)CC(=O)N3C2)cc1` (centres undefined), the IC50 [17] is reported as 8.68 µM (active), the IC50 [18] is reported as 10.7 µM (active) and the IC50 [19] is reported as > 50 µM (inactive). For the same molecule, the IC50 [20] was 74.1 µM (active) and the IC50 [21] was > 64 µM (inactive).

For `Cc1cc(-c2nnc(S)n2/N=C/C=C/c2ccccc2)[nH]n1`, the IC50 [20] was > 100 µM (inactive) and the IC50 [22] was 2.35 µM (active).

For `COC(=O)C1=C(C)N(Cc2ccccc2)C(NCCCCO)=N[C@H]1CCc1ccccc1`, the IC50 [23] was > 100 µM (inactive), the IC50 [24] was 18.9 µM (active) and the IC50 [11] was 3.51 µM (active). For the same molecule, the IC50 [12] was 5.42 µM (active).

In the case of `C#CCOCCOCCOCCNc1nc(N2CCN(C(=O)[C@H](CCCCN)n3cc([C@@H](N)C(C)CC)nn3)CC2)nc(N2CCN(C(=O)[C@H](CCCCN)n3cc([C@@H](N)CC(C)C)nn3)CC2)n1` (some centres undefined), the IC50 [25] is reported as > 20 µM (inactive), the IC50 [26] is reported as 8.4 µM (active) and the IC50 [27] is reported as 7.14 µM (active). The IC50 [28] was 114 µM (active).

For `COc1cc(/C=N\NC(=O)c2sc(N)nc2C)cc(OC)c1OC`, the IC50 [25] was > 20 µM (inactive), the IC50 [26] was 0.477 µM (active) and the IC50 [27] was 0.386 µM (active).

— ChEMBL document CHEMBL1201862, “PubChem BioAssay data set” (2004)
